Key:
[1] = test system: GB5 cells; experiment: Mitosis: cells positive for histone H3 phosphorylated on ser-10, GB5; format: cell-based, human; details: GB5, H3-ser10 positive cells
Method: FIG. 2: Compounds 9a-b and 18a-b effect on stemness marker expression, clonal expansion and mitosis in GB5 cells. (A) NESTIN expression was assessed by immunofluorescence in GB5 treated with increasing amount of Compounds 9a-b and 18a. The number of NESTIN positive cells was counted for each treatment and express as percentage of the control (100%). The results are the meaning of at least two separate experiments. […] (C) Clonal expansion analysis was performed with GB5 cells as described in the material and method section. Two and three weeks later, the number of spheroids is counted and reported as percentage of the initial number of cells in the well. The results are the meaning of a minimum of two separate experiments. (D) The number of mitosis in the culture was determined by the detection of the number of cells positive for histone H3 phosphorylated on ser-10 (H3-ser10). H3-ser10 expression was assessed by immunofluorescence in GB5 treated with increasing amount of Compounds 9a-b and 18a. The number of positive cells was counted for each treatment and express as percentage of the control (100%). The results are the meaning of at least two separate experiments.
III—Immunofluorescence assay: TG6 and GB5 were seeded at 2000 cells/well in 24 wells plate in NS34+ alone or containing 5, 7.5, 10, 12.5, 15, 20 and 25 uM of Compounds 9a-b and 18a-b. Cultures were incubated 4 days and the cells were fixed with 4% paraformaldehyde for 10 min at room temperature then washed with PBS. Cells were then incubated with ammonium chloride at 20 mM 5 min at room temperature and washed 5 times with PBS. Blocking and hybridization were realized in PBS containing 10% FCS and 0.1% Triton X100. Anti-Nestin and anti-H3Phospho serine 10 antibodies were incubated 2 hours at room temperature then washed with PBS. Fluorescence coupled secondary antibodies and Hoechst 33342 nuclei counterstaining reagent were hybridized one hour at room temperature. Cells were mounted with anti-fading agent then imaged, counted and quantified using fluorescent microscopy (TiE Nikon) and NiS software (Nikon).
It was further investigated the effects of selected compounds on GSC clonal expansion as well as their capacity of mitosis (FIGS. 2B and C). Compounds 9a-b and 18a treatment altered GSC clonal expansion and mitosis. The most efficient inhibition of clonal expansion was provided by Compound 9a treatment (IC50<10 uM) while both Compounds 9a-b were the most efficient for mitosis inhibition (IC50<10 uM) (FIGS. 2C and D).

[2] = test system: luminescent patient derived GSC orthotopic xenograft; experiment: Orthotopic xenograft of luminescent patient derived GSC, treatment from two weeks after injection; format: in vivo, nude mice
Method: FIG. 3: Nude mice were orthotopically xenografted by luminescent patient derived GSC. (A-B) Two weeks following injections, mice were intraperitoneally injected with 10 mg/kg (n=4), 7.5 mg/kg (n=4) or 5 mg/kg (n=4) of Compound 9a or vehicle alone as control (ctl n=10). A) graphical representation of the average of tumor growth in the control group (n=10) and in each Compound 9a treated groups. B) Survival of the whole population of mice of the untreated and treated groups were compared using a log rank test according to Kaplan Meier method. (R command, see World Wide Web: biostatgv.sentiweb.fr/?module=tests/surv). The solid line represents the survival rate of control untreated mice. The dotted line represents the survival rate of mice treated by compound 9a. C) Mice treatment with compound 9a when the tumors were already formed. Tumor growth representation in mice, treated either with DMSO (control: -♦-) or Compound 9a (-▪-). Tumor growth was controlled every week by live imaging. The solid line represents the tumor growth in control untreated mice. The dotted line represents the tumor growth in mice treated by compound 9a.
Nude mice were orthotopically xenografted by luminescent patient derived GSC. […]

[3] = test system: GB5; experiment: XTT toxicity assay on GSC (GB5); format: cell-based
Method: (§1) FIG. 4: Determination of compound toxicity on GSC and normal human cells. (A) GB5 were incubated with growing concentration of Compounds 9a-b and 18a. (B) human normal neural stem cell (NNSC), human normal kidney cells (NHEK), human normal hepatocytes (HEPRG) and (C) human endothelial cells (HUVEC) were treated with growing concentration of Compound 9a. 7 days later, the cells were subjected to an XTT assays as described in the method section. The results are the meaning of at least two separate experiments. Cell death was confirmed by trypan blue staining (not shown).
II—XTT assay: TG6 and GB5 were seeded at 2000 cells/well in 96 wells plate in NS34+ alone or containing 10, 20, 25, 50 and 100 uM of Compounds 9a-b and 18a-b. Cultures were incubated 4 days and the cell proliferation was evaluated as indicated by the manufacturer.
(§2) V—Toxicity tests: NNSC, GB5, TG6, HEK293, and HepaRG, HUVEC were seeded at 2000 cells/well in 96 wells plate in their respective culture mediums alone or containing growing concentration from 10 to 500 uM of Compounds 9a-b. Cultures were incubated 4 days and the cellular toxicity has been evaluated by XTT assays. Cell viability has been also assessed by counting living and dead cells with trypan blue staining.
XTT assays allows, through cell metabolism measurement, to determine a cytotoxic/cytostatic effects. Compounds 9a-b and 18a were tested for their eventual toxicity by XTT assays as described in the material and method section. At the working concentrations 10 to 25 uM, the compounds are not toxic for GSC (FIG. 4A). […] Compound 9a toxicity was further tested on normal neural stem cells (NNSC), human kidney (NHEK), human hepatocytes (HEPRG) and human endothelial cells (HUVEC). The compound is not toxic on NNSC, NHEK, HEPRG and HUVEC cells when used between 10 to 50 uM. At 100 uM and above, Compound 9a was toxic (FIG. 4).

[4] = test system: human endothelial cells (HUVEC); experiment: XTT toxicity assay on human endothelial cells; format: cell-based
Method: as §1, §2
XTT assays allows, through cell metabolism measurement, to determine a cytotoxic/cytostatic effects. Compounds 9a-b and 18a were tested for their eventual toxicity by XTT assays as described in the material and method section. At the working concentrations 10 to 25 uM, the compounds are not toxic for GSC (FIG. 4A). […]

NCCCCNCCCNC(=O)c1csc(-c2csc(CCNC(=O)CCc3cn(CC4OC(OC5C(O)C(N)CC(N)C5OC5OC(CN)C(O)C(O)C5N)C(O)C4OC4OC(CN)C(O)C(O)C4N)nn3)n2)n1 (centres unmarked) [Compound 9a, N-(3-((4-Aminobutyl)amino)propyl)-2′-(2-(3-(1-methyl-1H-1,2,3-triazol-4-yl)propanamido)ethyl)-[2,4′-bithiazole]-4-carboxamide-neomycin]
GSC mitosis [1]: altered
IC50 ([1]; Homo sapiens, read-out: mitosis inhibition IC50): < 10 µM
treated mice that developed a tumor ([2]; intraperitoneal 10, 7.5 or 5 mg/kg, three days a week, all control mice developed a tumor): two mice above twelve
tumor initiation and development ([2]; intraperitoneal at 10 mg/kg, 7.5 mg/kg and 5 mg/kg): prevented tumor initiation and development
toxicity for GSC (XTT) ([3]; GB5, 50 uM and higher): relative toxicity
toxicity for GSC (XTT) ([3]; GB5, 10 to 25 uM): not toxic
toxicity (XTT) ([4]; 100 uM and above): toxic
toxicity (XTT) ([4]; between 10 to 50 uM): not toxic

From US12508275B2, “Neomycin based compounds, and pharmaceutical use thereof” (UNIVERSITÉ COTE D'AZUR, priority 2019, dated 2025)
